In patent US20080038838A1, “Dioxin-Binding Material and Method of Detecting or Quantifying Dioxin” (Towa Kagaku Co., Ltd., priority 2003, published 2008):
“And” between values parts separate entries of the source, which are not always exact repeats. Identical values can stand only once. “Also recorded” adds a separate entry of the source. Square brackets hold non-standard residues; d marks the D form. Ends that are not written are not given here. Cha = N[C@@H](CC1CCCCC1)C(=O)O; Phg = N[C@H](C(=O)O)c1ccccc1; Nva = CCC[C@H](N)C(=O)O

Key:
[1] = fluorescent staining of peptide beads with NBD-labeled dichlorophenol; type: binding; conditions: 30% 1,4-dioxane solvent (FIG. 10)
Method: About 2.5 million peptide beads were used for screening, the number being equal to the number of combinations of all the sequences of peptides comprising 5 amino acid residues. The primary screening was conducted in a screening solvent (a 10 mM phosphate buffer containing 20% 1,4-dioxane (pH: 8)) containing 4 nM NBD-labeled dichlorophenol. 20 ml of the buffer solution was first mixed with about 50 mg of the peptide beads, and the mixture was subsequently incubated overnight, with mild shaking, in a petri dish at room temperature. A fraction of fluorescently stained peptide beads observed by a fluorescent microscope was collected with a micropipette. These peptide beads were transferred into a micro test tube containing 50 or 100% 1,4-dioxane, and were then incubated overnight at room temperature, i.e., washing with 50 or 100% dioxane overnight at room temperature. Peptide beads which were unable to be washed, on which the NBD-labeled dichlorophenol was unspecifically adsorbed, were excluded. Peptide beads that could be washed were re-stained with 1 nM NBD-labeled dichlorophenol. In order to measure the fluorescence intensity, fluorescent microscope images of the peptide beads were recorded with a digital camera (FIG. 4).
(§1) 1 ml of a screening solvent containing 4 nM NBD-labeled dichlorophenol and 0-100 nM of a substance to be detected was prepared in a glass vial, and then three dioxin-binding peptide beads were put into the screening solvent. The resulting mixture was incubated, with mild shaking, overnight at room temperature, and then fluorescent microscope images thereof were recorded. The average fluorescence intensity of each bead was calculated from the recorded images. Calculation of the average fluorescence intensity was performed with an image analysis/measurement software, “Image-Pro Plus” (Planetron, Inc.). When competitive binding of the dichlorophenol with a dioxin occurs, the fluorescence intensity of each bead decreases depending on the concentration of the dioxin. Such a method of measuring the dioxin concentration utilizing the quenching phenomenon of the beads was termed “the method of competitive dioxin binding on bead”.
A library of twenty-one kinds of single amino acid-substituted peptides shown in FIG. 8 was constructed in order to evaluate the importance of each amino acid of the obtained oligopeptides, and to optimize the sequences. […]
(§2) Tests were conducted on the above-mentioned peptides by the method of competitive dioxin binding on bead described in Example 2, using a 30% 1,4-dioxane solvent. […] All the four kinds of single residue-substituted peptides were evaluated for dioxin binding capability by the method of competitive dioxin binding on bead.

[2] = method of competitive dioxin binding on bead (2,3,7,8-TeCDD); conditions: for capability of detecting 2,3,7,8-TeCDD compared with DB2: 30% 1,4-dioxane solvent
Method: as §1
The DB2 peptide was evaluated for affinity to dioxins by the method of competitive dioxin binding on bead. FIGS. 6 (A) and 6 (B) show the results of tests conducted in a solvent containing 30% 1,4-dioxane. The relationship between dioxin concentration and average fluorescence intensity is plotted in FIG. 6 (A). As shown in the figure, declining sigmoid curves, which are characteristic of the competitive binding, were obtained. The curves were fitted using the four-parameter logistic equation, y=(a−d)/(1+(x/c)^b)+d, which is an empirical equation typically employed in competitive ELISA (Eiji Ishikawa, “Enzyme Immunoassay (3rd Edition)”, IGAKU-SHOIN).
(§3) The quenching ratio was calculated using the equation shown below. The beads were evaluated for affinity with the substances detected based on the values of quenching ratios.
(§4) quenching ratio=(fluorescence intensity 1−fluorescence intensity 2)/fluorescence intensity 1×100(%)
The binding constants of the DB2 peptide were calculated using the results of the above equation. Fitting was performed based on the theoretical equation for one-to-one binding of a receptor with a ligand as shown below:
as §2

[3] = secondary screening of peptide beads: fluorescence decrease by competition with 2,3,7-TriCDD; type: binding; conditions: 1 nM NBD-labeled dichlorophenol, 10 mM phosphate buffer pH 8 with 20% 1,4-dioxane
Text: A peptide library was constructed by split-and-pool synthesis, one of the typical techniques of combinatorial chemistry, using beads for peptide solid-phase synthesis. According to the present method, a peptide of one kind of sequence is synthesized on a single bead. […] Primary screening involved screening of fluorescently stained peptide beads, using a composite (FIG. 3) obtained by labeling 3,4-dichlorophenol, which has an analogous structure to dioxins, with NBD as a fluorescent material.
About 2.5 million peptide beads were used for screening, the number being equal to the number of combinations of all the sequences of peptides comprising 5 amino acid residues. […] In order to measure the fluorescence intensity, fluorescent microscope images of the peptide beads were recorded with a digital camera (FIG. 4).
The aforementioned washable peptide beads were put into 1 ml of a screening solvent containing 1 nM NBD-labeled dichlorophenol and 10 or 100 nM 2,3,7-trichlorodibenzo-p-dioxin (2,3,7-TriCDD). The mixture was incubated overnight with mild shaking at room temperature, and was then transferred onto a glass petri dish, and fluorescent microscope images thereof were recorded. The obtained images were compared with the images recorded in the previous test so as to screen decreased beads. […]

[4] = method of competitive dioxin binding on bead (2,3,7-TriCDD)
Method: 1 ml of a screening solvent containing 4 nM NBD-labeled dichlorophenol and 0-100 nM of a substance to be detected was prepared in a glass vial, and then three dioxin-binding peptide beads were put into the screening solvent. The resulting mixture was incubated, with mild shaking, overnight at room temperature, and then fluorescent microscope images thereof were recorded. The average fluorescence intensity of each bead was calculated from the recorded images. Calculation of the average fluorescence intensity was performed with an image analysis/measurement software, “Image-Pro Plus” (Planetron, Inc.). When competitive binding of the dichlorophenol with a dioxin occurs, the fluorescence intensity of each bead decreases depending on the concentration of the dioxin. […]
The DB2 peptide was evaluated for affinity to dioxins by the method of competitive dioxin binding on bead. […] The relationship between dioxin concentration and average fluorescence intensity is plotted in FIG. 6 (A). […]
as §3, §4
The binding constants of the DB2 peptide were calculated using the results of the above equation. […]

[5] = 30% 1,4-dioxane, 4 nM NBD-labeled dichlorophenol, 0-100 nM substance
[6] = peptide beads, solvent containing 30% 1,4-dioxane, fit of quenching ratio to one-to-one binding equation

| Substance | fluorescence intensity when stained, compared with DB2 peptide [1] | capability of detecting 2,3,7,8-TeCDD compared with DB2 [2] | 2,3,7,8-TeCDD concentration that can be detected ([2]; 30% 1,4-dioxane) | quenching by competition with 10 nM 2,3,7-TriCDD [3] | further results |
| --- | --- | --- | --- | --- | --- |
| Cha Leu Asp Gln Val ([Cha]LDQV) [SEQ ID No. 5] | equal to or greater than that of the DB2 peptide | equal to or more than that of DB2 |  |  |  |
| Phe Leu Asp Gln Leu (FLDQL) [SEQ ID No. 23] | equal to or greater than that of the DB2 peptide | equal to or more than that of DB2 |  |  |  |
| Phe Leu Asp Gln Nva (FLDQ[Nva]) [SEQ ID No. 24] | equal to or greater than that of the DB2 peptide | equal to or more than that of DB2 |  |  |  |
| Phe Leu Asp Gln Phg (FLDQ[Phg]) [SEQ ID No. 22] | equal to or greater than that of the DB2 peptide | equal to or more than that of DB2 | 0.15 nM and 0.05 ng/ml |  | detection sensitivity to 2,3,7,8-TeCDD relative to DB2 ([2]; 30% dioxane solvent): about ten times greater than that of DB2; also recorded: about ten times higher than that of DB2 |
| Phe-Leu-Asp-Gln-Ile (FLDQI) [DB1] |  | equal to or more than that of DB2 |  | confirmed |  |
| Phe-Leu-Asp-Gln-Val (FLDQV) [DB2] |  |  | 1 nM and about 0.3 ng/ml | confirmed | concentration-dependent quenching by 2,3,7-TriCDD [4, 5]: Concentration-dependent quenching was observed; affinity (binding constant Ka) for 2,3,7-TriCDD [4, 6]: 2e+08 M⁻¹; concentration-dependent quenching by 2,3,7,8-TeCDD [2, 5]: Concentration-dependent quenching was observed; affinity (binding constant Ka) for 2,3,7,8-TeCDD [2, 6]: 1.7e+09 M⁻¹ |
